In ChEMBL document CHEMBL3616439, “Synthesis, α-glucosidase inhibitory and molecular docking studies of prenylated and geranylated flavones, isoflavones and chalcones” (Bioorg Med Chem Lett, 2015):
Activity calls are given as the source filed them. The calls are words filed in the database; no cut-off is given here.

Experiments:
Saccharomyces cerevisiae [1] = assay: Mixed-type inhibition of baker's yeast alpha-glucosidase using p-nitrophenyl-alpha-D-glucopyranoside as substrate at 4 to 6 uM preincubated for 30 mins followed by substrate addition by Lineweaver-Burk plot analysis
[2] = Inhibition of baker's yeast alpha-glucosidase using p-nitrophenyl-alpha-D-glucopyranoside as substrate after 30 mins by spectrophotometric analysis; set-up: species or system Saccharomyces cerevisiae
Saccharomyces cerevisiae [3] = assay: Competitive inhibition of baker's yeast alpha-glucosidase using p-nitrophenyl-alpha-D-glucopyranoside as substrate at 1.5 to 2 uM preincubated for 30 mins followed by substrate addition by Lineweaver-Burk plot analysis
Saccharomyces cerevisiae [4] = assay: Competitive inhibition of baker's yeast alpha-glucosidase using p-nitrophenyl-alpha-D-glucopyranoside as substrate at 1 to 2 uM preincubated for 30 mins followed by substrate addition by Lineweaver-Burk plot analysis
Saccharomyces cerevisiae [5] = assay: Potency index, ratio of acarbose IC50 to compound IC50 for baker's yeast alpha-glucosidase

| IC50 [2] | Compound | other results |
| --- | --- | --- |
| 9 µM | CC(C)=CCC/C(C)=C/Cc1cc(C(=O)/C=C/c2ccc(O)cc2)c(O)c(CC=C(C)C)c1O | – |
| 11.5 µM | CC(C)=CCC/C(C)=C/Cc1c(O)c(CC=C(C)C)cc(C(=O)/C=C/c2ccc(O)cc2)c1O | – |
| 16.3 µM | CC(C)=CCC/C(C)=C/Cc1cc(C(=O)/C=C/c2ccc(O)cc2)c(O)cc1O | – |
| 6.9 µM | CC(C)=CCc1cc(C(=O)/C=C/c2ccc(O)cc2)c(O)c(CC=C(C)C)c1O [MEDICAGENIN] | – |
| 5.3 µM | CC(C)=CCc1cc(C(=O)/C=C/c2ccc(O)cc2)c(O)cc1O [BROUSSOCHALCONE B] | – |
| > 100 µM | COc1ccc(/C=C/C(=O)c2cc(CC=C(C)C)c(OC)cc2OC)cc1 | – |
| 0.9 µM | CC(C)=CCC/C(C)=C/Cc1cc(C(=O)/C=C/c2ccc(O)cc2)c(O)c(C/C=C(\C)CCC=C(C)C)c1O | inhibition (Saccharomyces cerevisiae [4]): Active; Ratio IC50 (Saccharomyces cerevisiae [5]): 50 |

Further lines, the molecule ahead of its results:

| Compound | IC50 [2] | other results |
| --- | --- | --- |
| CC(C)=CCC/C(C)=C/Cc1c(O)cc(O)c2c(=O)c(-c3ccc(O)cc3)coc12 | 6.26 µM | inhibition (Saccharomyces cerevisiae [1]): Active |
| O=C(/C=C/c1ccc(O)cc1)c1ccc(O)cc1O [ISOLIQUIRITIGENIN] | > 100 µM | – |
| CC(C)=CCc1c(O)cc(O)c2c(=O)c(-c3ccc(O)cc3)coc12 | > 100 µM | – |
| O=c1c(O)c(-c2ccc(O)c(O)c2)oc2cc(O)cc(O)c12 [QUERCETIN] | 11 µM | – |
| O=c1c(-c2ccc(O)cc2)coc2cc(O)cc(O)c12 [GENISTEIN] | 50.1 µM | – |
| CC(C)=CCC/C(C)=C/Cc1c(O)cc(O)c2c(=O)c(O)c(-c3ccc(O)c(O)c3)oc12 | 1.15 µM | inhibition (Saccharomyces cerevisiae [3]): Active |
| COc1ccc(-c2coc3c(C/C=C(\C)CCC=C(C)C)c(OC)cc(OC)c3c2=O)cc1 | > 100 µM | – |
| C[C@H]1O[C@H](O[C@H]2[C@H](O)[C@@H](O)[C@@H](O[C@H]3[C@H](O)[C@@H](O)C(O)O[C@@H]3CO)O[C@@H]2CO)[C@H](O)[C@@H](O)[C@@H]1N[C@H]1C=C(CO)[C@@H](O)[C@H](O)[C@H]1O (stereo partly drawn) [ACARBOSE] | 51.3 µM | – |
| COc1ccc(-c2coc3c(CC=C(C)C)c(OC)cc(OC)c3c2=O)cc1 | > 100 µM | – |
| CC(C)=CCc1c(O)cc(O)c2c(=O)c(O)c(-c3ccc(O)c(O)c3)oc12 | 4.38 µM | – |
| COc1ccc(-c2coc3c(C/C=C(\C)CCC=C(C)C)c(OC)cc(O)c3c2=O)cc1 | > 100 µM | – |
| COc1ccc(-c2coc3c(CC=C(C)C)c(OC)cc(O)c3c2=O)cc1 | > 100 µM | – |
